This is an account of results in US8143408B2, “N-(8-heteroaryltetrahydronaphtalene-2yl) or N-(5-heteroarylchromane-3-yl) carboxamide derivatives for the treatment of pain” (AstraZeneca AB, priority 2007, dated 2012).

As usually defined, the IC50 is the concentration at which inhibition is half-maximal. A lower IC50 goes with inhibition by little substance.

The target in this experiment is T1, Nav1.7 voltage-gated sodium channel (Homo sapiens, UniProt Q15858).
T1 construct: Gene(s) encoding the full-length protein of the voltage-gated sodium channel of interest are cloned and expressed; expressed in transfected cells
T1 sequence (Q15858 whole entry): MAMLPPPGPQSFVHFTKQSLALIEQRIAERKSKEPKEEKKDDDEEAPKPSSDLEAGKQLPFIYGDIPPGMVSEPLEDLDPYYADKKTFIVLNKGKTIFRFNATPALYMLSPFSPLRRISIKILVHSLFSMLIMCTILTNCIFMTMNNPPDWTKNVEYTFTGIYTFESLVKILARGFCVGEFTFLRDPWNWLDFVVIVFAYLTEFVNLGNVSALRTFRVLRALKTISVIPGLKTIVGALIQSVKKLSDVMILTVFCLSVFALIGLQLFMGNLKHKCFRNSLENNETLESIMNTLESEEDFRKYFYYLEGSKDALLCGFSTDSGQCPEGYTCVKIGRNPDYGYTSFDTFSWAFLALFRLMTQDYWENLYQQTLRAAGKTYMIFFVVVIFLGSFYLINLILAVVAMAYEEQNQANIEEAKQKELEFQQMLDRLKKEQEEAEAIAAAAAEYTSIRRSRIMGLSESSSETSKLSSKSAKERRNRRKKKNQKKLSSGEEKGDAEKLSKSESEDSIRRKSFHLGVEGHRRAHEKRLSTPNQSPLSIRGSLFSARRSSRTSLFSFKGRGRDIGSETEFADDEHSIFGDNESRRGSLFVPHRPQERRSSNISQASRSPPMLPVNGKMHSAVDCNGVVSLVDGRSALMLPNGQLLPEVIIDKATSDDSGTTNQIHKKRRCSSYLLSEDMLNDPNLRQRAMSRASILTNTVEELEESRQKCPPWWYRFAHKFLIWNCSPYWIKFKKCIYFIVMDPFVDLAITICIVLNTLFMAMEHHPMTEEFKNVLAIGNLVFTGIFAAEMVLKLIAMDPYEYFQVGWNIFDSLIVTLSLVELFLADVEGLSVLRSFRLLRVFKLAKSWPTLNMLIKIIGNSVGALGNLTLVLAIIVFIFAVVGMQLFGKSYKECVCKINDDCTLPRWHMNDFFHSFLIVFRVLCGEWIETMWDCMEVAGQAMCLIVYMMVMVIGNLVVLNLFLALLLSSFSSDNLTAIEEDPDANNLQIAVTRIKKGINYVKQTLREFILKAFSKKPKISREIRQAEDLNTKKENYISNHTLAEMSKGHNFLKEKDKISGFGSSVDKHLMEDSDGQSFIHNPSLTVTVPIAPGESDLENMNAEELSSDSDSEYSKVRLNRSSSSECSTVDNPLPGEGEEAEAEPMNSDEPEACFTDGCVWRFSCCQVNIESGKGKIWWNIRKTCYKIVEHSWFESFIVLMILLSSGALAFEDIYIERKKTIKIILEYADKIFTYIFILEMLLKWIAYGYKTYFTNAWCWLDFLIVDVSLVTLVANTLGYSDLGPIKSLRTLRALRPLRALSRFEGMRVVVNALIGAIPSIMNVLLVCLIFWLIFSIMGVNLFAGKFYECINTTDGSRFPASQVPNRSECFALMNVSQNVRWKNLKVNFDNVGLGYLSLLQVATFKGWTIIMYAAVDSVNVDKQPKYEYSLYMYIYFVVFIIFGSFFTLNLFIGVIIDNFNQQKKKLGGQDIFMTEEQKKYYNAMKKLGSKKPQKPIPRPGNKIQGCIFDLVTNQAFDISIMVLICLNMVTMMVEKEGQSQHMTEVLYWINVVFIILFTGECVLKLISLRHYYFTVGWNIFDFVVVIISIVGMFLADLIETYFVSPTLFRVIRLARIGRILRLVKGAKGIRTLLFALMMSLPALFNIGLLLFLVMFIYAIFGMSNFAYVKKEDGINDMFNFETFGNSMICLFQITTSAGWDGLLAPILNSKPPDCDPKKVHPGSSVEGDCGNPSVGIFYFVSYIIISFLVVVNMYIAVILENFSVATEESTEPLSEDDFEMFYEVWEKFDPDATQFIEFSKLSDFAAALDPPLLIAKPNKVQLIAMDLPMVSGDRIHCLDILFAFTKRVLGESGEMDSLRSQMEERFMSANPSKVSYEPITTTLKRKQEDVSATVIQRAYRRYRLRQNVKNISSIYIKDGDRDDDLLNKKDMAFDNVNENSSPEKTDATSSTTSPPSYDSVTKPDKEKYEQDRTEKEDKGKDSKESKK
Put plainly: Whole-cell voltage clamp electrophysiology assay. The format is cell-based. Particulars: cells stably expressing the voltage-gated sodium channel of interest. The text has this:
Gene(s) encoding the full-length protein of the voltage-gated sodium channel of interest are cloned and expressed under a suitable promoter in a suitable cell line, as well known in the art. […] Suitable screening assays are as follows.
Electrophysiological studies can be performed using automated patch-clamp electrophysiology platforms, like IonWorks HT, IonWorks Quattro, PatchXpress, QPatch or any other suitable platform. […] Suitable extracellular and intracellular buffer for such experiments are applied according to the instructions given by the manufacturer of the automated patch-clamp platforms. Cells that express the voltage-gated sodium channel protein of interest are exposed to drugs through the pipetting system integrated in the platforms. A suitable voltage stimulus protocol is used to activate the voltage-gated sodium channel proteins of interest through depolarisation from a defined holding potential.
Electrophysiological studies can also be performed using the whole cell configuration of the standard patch clamp technique. In this assay, cells that express the voltage-gated sodium channel protein of interest are exposed to the drugs by conventional microperfusion systems and a suitable voltage stimulus protocol is used to activate the voltage-gated sodium channels.
For the compound `O=C(N[C@@H]1COc2cccc(-c3cnc(C4CC4)nc3)c2C1)c1ccc(OCC(F)(F)F)nc1` [Example 109, N-[(3S)-5-(2-cyclopropylpyrimidin-5-yl)-3,4-dihydro-2H-chromen-3-yl]-6-(2,2,2-trifluoroethoxy)nicotinamide], the midpoint of inhibition, the IC50, lay at 126 nM. This counts as sub-micromolar.
As for `O=C(N[C@@H]1COc2cccc(-c3cccnc3)c2C1)c1ccc(OCCC(F)(F)F)nc1` [Example 51, N-[(3S)-5-pyridin-3-yl-3,4-dihydro-2H-chromen-3-yl]-6-(3,3,3-trifluoropropoxy)nicotinamide], the figure is 39.8 nM; as for `O=C(N[C@@H]1CCc2cccc(-c3ccnnc3)c2C1)c1ccc(OC2CCCOC2)nc1` (stereo partly drawn) [Example 146, N-[(2R)-8-pyridazin-4-yl-1,2,3,4-tetrahydronaphthalen-2-yl]-6-(tetrahydro-2H-pyran-3-yloxy)nicotinamide], 7940 nM; as for `O=C(N[C@@H]1COc2cccc(-c3ccncc3)c2C1)c1ccc(OCc2cnccn2)nc1` [Example 120, 6-(pyrazin-2-ylmethoxy)-N-[(3S)-5-pyridin-4-yl-3,4-dihydro-2H-chromen-3-yl]nicotinamide], 1580 nM.
In the case of `CCCCn1ccc(C(=O)N[C@@H]2COc3cccc(-c4cnc(OC)c(F)c4)c3C2)cc1=O` [Example 148, 1-butyl-N-[(3S)-5-(5-fluoro-6-methoxypyridin-3-yl)-3,4-dihydro-2H-chromen-3-yl]-2-oxo-1,2-dihydropyridine-4-carboxamide] it was 794 nM.
As for `COc1ncc(-c2cccc3c2C[C@H](NC(=O)c2ccc(S(=O)(=O)C4CCCC4)nc2)CO3)cn1` [Example 181, 6-(cyclopentylsulfonyl)-N-[(3S)-5-(2-methoxypyrimidin-5-yl)-3,4-dihydro-2H-chromen-3-yl]nicotinamide], the figure is 501 nM.
Compound `O=C(N[C@@H]1COc2cccc(-c3ccncc3)c2C1)c1ccc(OCc2ccccn2)nc1` [Example 118, N-[(3S)-5-pyridin-4-yl-3,4-dihydro-2H-chromen-3-yl]-6-(pyridin-2-ylmethoxy)nicotinamide] showed an IC50 of 1580 nM.
Take `COc1ncc(-c2cccc3c2C[C@H](NC(=O)c2ccc(C(=O)N(C)CC(F)(F)F)nc2)CO3)cc1F` [Example 192, N^5-[(3S)-5-(5-fluoro-6-methoxypyridin-3-yl)-3,4-dihydro-2H-chromen-3-yl]-N^2-methyl-N^2-(2,2,2-trifluoroethyl)pyridine-2,5-dicarboxamide]: it took 631 nM to reach half-maximal inhibition (IC50). This IC50 lies about 2.5-fold lower than the previous one.
In the case of `Cc1cnccc1-c1cccc2c1C[C@H](NC(=O)c1ccc(OCCC(F)(F)F)nc1)CO2` [Example 68, N-[(3S)-5-(3-methylpyridin-4-yl)-3,4-dihydro-2H-chromen-3-yl]-6-(3,3,3-trifluoropropoxy)nicotinamide] it was 100 nM; in that of `COc1ncc(-c2cccc3c2C[C@H](NC(=O)c2cnc(NCCC(F)(F)F)nc2)CO3)cc1F` [Example 200, N-[(3S)-5-(5-fluoro-6-methoxypyridin-3-yl)-3,4-dihydro-2H-chromen-3-yl]-2-[(3,3,3-trifluoropropyl)amino]pyrimidine-5-carboxamide], 316 nM.
In the case of `COc1ncc(-c2cccc3c2C[C@H](NC(=O)c2ccc(OCC(F)(F)F)nc2)CC3)cn1` [Example 85, N-[(2R)-8-(2-methoxypyrimidin-5-yl)-1,2,3,4-tetrahydronaphthalen-2-yl]-6-(2,2,2-trifluoroethoxy)nicotinamide] it was 501 nM; in that of `CC(C)Oc1ccc(C(=O)N[C@@H]2COc3cccc(-c4cncnc4)c3C2)cn1` [Example 53, 6-isopropoxy-N-[(3S)-5-pyrimidin-5-yl-3,4-dihydro-2H-chromen-3-yl]nicotinamide], 251 nM; in that of `Cc1cc(COc2ccc(C(=O)N[C@@H]3COc4cccc(-c5ccncc5)c4C3)cn2)no1` [Example 115, 6-[(5-methylisoxazol-3-yl)methoxy]-N-[(3S)-5-pyridin-4-yl-3,4-dihydro-2H-chromen-3-yl]nicotinamide], 316 nM.
As for `COc1ncc(-c2cccc3c2C[C@H](NC(=O)c2ccc(OC4CCOC4)nc2)CO3)cn1` (stereo partly drawn) [Example 158, N-[(3S)-5-(2-methoxypyrimidin-5-yl)-3,4-dihydro-2H-chromen-3-yl]-6-(tetrahydrofuran-3-yloxy)nicotinamide], the figure is 3980 nM; as for `O=C(N[C@@H]1COc2cccc(-c3cccnc3)c2C1)c1ccc2ccccc2n1` [Example 65, N-[(3S)-5-pyridin-3-yl-3,4-dihydro-2H-chromen-3-yl]quinoline-2-carboxamide], 5010 nM.
On to `Cc1n[nH]c(C)c1-c1cccc2c1C[C@H](NC(=O)c1ccc(OC(F)(F)F)cc1)CC2` [Example 9, N-[(2R)-8-(3,5-Dimethyl-1H-pyrazol-4-yl)-1,2,3,4-tetrahydronaphthalen-2-yl]-4-(trifluoromethoxy)-benzamide], for which half-maximal inhibition (IC50) was put at 6310 nM.
In the case of `O=C(N[C@@H]1COc2cccc(-c3ccncc3)c2C1)c1ccc(OC2CCOCC2)nc1` [Example 129, N-[(3S)-5-pyridin-4-yl-3,4-dihydro-2H-chromen-3-yl]-6-(tetrahydro-2H-pyran-4-yloxy)nicotinamide] it was 200 nM.
As for `CCCCS(=O)(=O)c1ccc(C(=O)N[C@@H]2COc3cccc(-c4ccncc4)c3C2)cn1` [Example 34, 6-(butylsulfonyl)-N-[(3S)-5-pyridin-4-yl-3,4-dihydro-2H-chromen-3-yl]nicotinamide], the figure is 631 nM; as for `COc1ccc(C(=O)N[C@@H]2COc3cccc(-c4ccncc4)c3C2)c(OC)c1` [Example 22, 2,4-dimethoxy-N-[(3S)-5-pyridin-4-yl-3,4-dihydro-2H-chromen-3-yl]benzamide], 6310 nM.
`Cc1ncc(-c2cccc3c2C[C@H](NC(=O)c2ccc(COCC(F)(F)F)nc2)CO3)cn1` [Example 203, N-[(3S)-5-(2-methylpyrimidin-5-yl)-3,4-dihydro-2H-chromen-3-yl]-6-[(2,2,2-trifluoroethoxy)methyl]nicotinamide] gave an IC50 of 200 nM.
The compound `Cc1ncc(-c2cccc3c2C[C@H](NC(=O)c2ccc(OC4CCCOC4)nc2)CC3)cn1` (stereo partly drawn) [Example 160, N-[(2R)-8-(2-methylpyrimidin-5-yl)-1,2,3,4-tetrahydronaphthalen-2-yl]-6-(tetrahydro-2H-pyran-3-yloxy)nicotinamide] showed an IC50 of 3160 nM.
Turning to `O=C(N[C@@H]1COc2cccc(-c3ccc(CO)nc3)c2C1)c1ccc(OCCCF)nc1` [Example 211, 6-(3-fluoropropoxy)-N-{(3S)-5-[6-(hydroxymethyl)pyridin-3-yl]-3,4-dihydro-2H-chromen-3-yl}nicotinamide], the IC50 was 200 nM.
As for `Cc1cncc(-c2cccc3c2C[C@H](NC(=O)c2ccc(OCC(F)(F)F)nc2)CO3)n1` [Example 99, N-[(3S)-5-(6-methylpyrazin-2-yl)-3,4-dihydro-2H-chromen-3-yl]-6-(2,2,2-trifluoroethoxy)nicotinamide], the figure is 398 nM.
As for `CNC(=O)c1cc(-c2cccc3c2C[C@H](NC(=O)c2ccc(OC(C)C)nc2)CO3)cnc1OC` [Example 205, 5-[(3S)-3-{[(6-isopropoxypyridin-3-yl)carbonyl]amino}-3,4-dihydro-2H-chromen-5-yl]-2-methoxy-N-methylnicotinamide], the figure is 1260 nM.
